{
  "source": "patent US9212152B2",
  "about": "“Process for the preparation of N-hydroxy-1-(1-alkyl-1H-tetrazol-5-yl)-1-phenylmethanimine derivatives” (BAYER INTELLECTUAL PROPERTY GMBH, priority 2012, dated 2015)",
  "test": "log P determination",
  "assay_type": "physicochemical",
  "conditions": "pH 2.7",
  "data": [
    {"smiles": "Cn1nnnc1C(=NO)c1ccccc1", "note": "[Example 1, sodium {[(1-methyl-1H-tetrazol-5-yl)(phenyl)methylene]amino}oxidanide]", "values": [
      {"measurement": "logP", "result": 1.45}
    ]}
  ]
}
